Patent US6355799B1, “Substituted benzene compounds, process for their preparation, and herbicidal and defoliant compositions containing them” (ISK Americas Incorporated, priority 1997, dated 2002)

Experiments:
Assay type in all cases: in vivo
[1] = test system: green foxtail (Setaria viridis, SETVI); test: Post-emerge test, greenhouse herbicide activity screening; details: rating scale 0-100 (0 no damage, 100 complete death), 14 days after application
Summary of the method: (§1)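 Compounds in acetone were track-sprayed at 15-1000 g ai/ha (187 l/ha) on sandy loam pots: pre-emerge one day after seeding, post-emerge at 2-3 leaf stage with 0.25% v/v non-ionic surfactant. Phytotoxicity was rated 14 days later on a 0 (no damage) to 100 (complete death) scale.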

[2] = test system: barnyardgrass (Echinochloa crus-galli, ECHCG); test: as above; details: rating scale 0-100 (0 no damage, 100 complete death), 14 days after application
Summary of the method: as §1

[3] = test system: sicklepod (Cassia obtusifolia, CASOB); test: as above; details: rating scale 0-100 (0 no damage, 100 complete death), 14 days after application
Summary of the method: as §1

[4] = test system: velvetleaf (Abutilon theophrasti, ABUTH); test: as above; details: rating scale 0-100 (0 no damage, 100 complete death), 14 days after application
Summary of the method: as §1

[5] = test system: johnsongrass (Sorghum halepense, SORHA); test: as above; details: rating scale 0-100 (0 no damage, 100 complete death), 14 days after application
Summary of the method: as §1

[6] = test system: large crabgrass (Digitaria sanguinalis, DIGSA); test: as above; details: rating scale 0-100 (0 no damage, 100 complete death), 14 days after application
Summary of the method: as §1

[7] = test system: ivyleaf morningglory (Ipomoea hederacea, IPOHE); test: as above; details: rating scale 0-100 (0 no damage, 100 complete death), 14 days after application
Summary of the method: as §1

[8] = test system: lambsquarters (Chenopodium album, CHEAL); test: as above; details: rating scale 0-100 (0 no damage, 100 complete death), 14 days after application
Summary of the method: as §1

[9] = test system: redroot pigweed (Amaranthus retroflexus, AMARE); test: as above; details: rating scale 0-100 (0 no damage, 100 complete death), 14 days after application
Summary of the method: as §1

[10] = test system: common ragweed (Ambrosia artemisizfolia L., AMBEL); test: as above; details: rating scale 0-100 (0 no damage, 100 complete death), 14 days after application
Summary of the method: as §1

[11] = test system: field corn (Zea mays L., var. Dekalb 535, CORN); test: Post-emerge test, crop safety; details: rating scale 0-100 (0 no damage, 100 complete death), 14 days after application
Summary of the method: (§2)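 Compounds in acetone were track-sprayed at 187 l/ha, 15–1000 g ai/ha, onto sandy loam pots. Pre-emerge seeds were sown one day before spraying, with surface watering afterwards. Post-emerge plants were at the 2–3 leaf stage and sprayed with 0.25% v/v non-ionic surfactant. Injury was rated 0–100 at 14 days.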

[12] = test system: upland rice (Oryza sp., var. Tebonnet, RICE); test: Post-emerge test, crop safety; details: rating scale 0-100 (0 no damage, 100 complete death), 14 days after application
Summary of the method: as §2

[13] = test system: field corn (Zea mays L., var. Dekalb 535, CORN); test: Pre-emerge test, crop safety; details: rating scale 0-100, 14 days after application
Summary of the method: as §1

[14] = test system: upland rice (Oryza sp., var. Tebonnet, RICE); test: Pre-emerge test, crop safety; details: rating scale 0-100, 14 days after application
Summary of the method: as §1

[15] = test system: green foxtail (Setaria viridis, SETVI); test: Pre-emerge test, greenhouse herbicide activity screening; details: rating scale 0-100, 14 days after application
Summary of the method: as §2

[16] = test system: barnyardgrass (Echinochloa crus-galli, ECHCG); test: as above; details: rating scale 0-100, 14 days after application
Summary of the method: as §2

[17] = test system: sicklepod (Cassia obtusifolia, CASOB); test: as above; details: rating scale 0-100, 14 days after application
Summary of the method: as §2

[18] = test system: velvetleaf (Abutilon theophrasti, ABUTH); test: as above; details: rating scale 0-100, 14 days after application
Summary of the method: as §2

[19] = test system: johnsongrass (Sorghum halepense, SORHA); test: as above; details: rating scale 0-100, 14 days after application
Summary of the method: as §2

[20] = test system: large crabgrass (Digitaria sanguinalis, DIGSA); test: as above; details: rating scale 0-100, 14 days after application
Summary of the method: as §2

[21] = test system: ivyleaf morningglory (Ipomoea hederacea, IPOHE); test: as above; details: rating scale 0-100, 14 days after application
Summary of the method: as §2

[22] = test system: lambsquarters (Chenopodium album, CHEAL); test: as above; details: rating scale 0-100, 14 days after application
Summary of the method: as §2

[23] = test system: redroot pigweed (Amaranthus retroflexus, AMARE); test: as above; details: rating scale 0-100, 14 days after application
Summary of the method: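 Herbicidal damage is scored 0 (none) to 100 (complete plant death) two weeks after a simulated field spray. Rates span 15–1000 g ai/ha, delivered in acetone at 187 l/ha. For post-emergence treatments, plants have 2–3 leaves and the spray carries 0.25% v/v non-ionic surfactant.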

## CCOC(=O)C(C)(Cl)Cc1c(OC)c(Cl)cc(F)c1-n1c(=O)cc(C(F)(F)F)n(C)c1=O (stereo not shown) [14-34]
[1]; Rate 63 g ai/ha
  Post-emerge Herbicidal Activity, phytotoxicity rating SETVI: 100
[1]; Rate 250 g ai/ha
  Post-emerge Herbicidal Activity, phytotoxicity rating SETVI: 100
[2]; Rate 63 g ai/ha
  Post-emerge Herbicidal Activity, phytotoxicity rating ECHCG: 100
[2]; Rate 250 g ai/ha
  Post-emerge Herbicidal Activity, phytotoxicity rating ECHCG: 100
[3]; Rate 63 g ai/ha
  Post-emerge Herbicidal Activity, phytotoxicity rating CASOB: 40
[3]; Rate 250 g ai/ha
  Post-emerge Herbicidal Activity, phytotoxicity rating CASOB: 100
[4]; Rate 63 g ai/ha
  Post-emerge Herbicidal Activity, phytotoxicity rating ABUTH: 99
[4]; Rate 250 g ai/ha
  Post-emerge Herbicidal Activity, phytotoxicity rating ABUTH: 100
[5]; Rate 63 g ai/ha
  Post-emerge Herbicidal Activity, phytotoxicity rating SORHA: 60
[5]; Rate 250 g ai/ha
  Post-emerge Herbicidal Activity, phytotoxicity rating SORHA: 80
[6]; Rate 63 g ai/ha
  Post-emerge Herbicidal Activity, phytotoxicity rating DIGSA: 70
[6]; Rate 250 g ai/ha
  Post-emerge Herbicidal Activity, phytotoxicity rating DIGSA: 99
[7]; Rate 63 g ai/ha
  Post-emerge Herbicidal Activity, phytotoxicity rating IPOHE: 60
[7]; Rate 250 g ai/ha
  Post-emerge Herbicidal Activity, phytotoxicity rating IPOHE: 90
[8]; Rate 63 g ai/ha
  Post-emerge Herbicidal Activity, phytotoxicity rating CHEAL: 100
[8]; Rate 250 g ai/ha
  Post-emerge Herbicidal Activity, phytotoxicity rating CHEAL: 100
[9]; Rate 63 g ai/ha
  Post-emerge Herbicidal Activity, phytotoxicity rating AMARE: 100
[9]; Rate 250 g ai/ha
  Post-emerge Herbicidal Activity, phytotoxicity rating AMARE: 100
[10]; Rate 63 g ai/ha
  Post-emerge Herbicidal Activity, phytotoxicity rating AMBEL: 40
[10]; Rate 250 g ai/ha
  Post-emerge Herbicidal Activity, phytotoxicity rating AMBEL: 100
[11]; Rate 63 g ai/ha
  Post-emerge phytotoxicity rating CORN (crop damage): 80
[11]; Rate 250 g ai/ha
  Post-emerge phytotoxicity rating CORN (crop damage): 100
[12]; Rate 63 g ai/ha
  Post-emerge phytotoxicity rating RICE (crop damage): 25
[12]; Rate 250 g ai/ha
  Post-emerge phytotoxicity rating RICE (crop damage): 70
[13]; 63 g ai/ha
  Pre-emerge phytotoxicity rating, crop damage CORN: 0
[13]; 250 g ai/ha
  Pre-emerge phytotoxicity rating, crop damage CORN: 25
[14]; 63 g ai/ha
  Pre-emerge phytotoxicity rating, crop damage RICE: 20
[14]; 250 g ai/ha
  Pre-emerge phytotoxicity rating, crop damage RICE: 90
[15]; 63 g ai/ha
  Pre-emerge herbicidal activity, phytotoxicity rating SETVI: 30
[15]; 250 g ai/ha
  Pre-emerge herbicidal activity, phytotoxicity rating SETVI: 100
[16]; 63 g ai/ha
  Pre-emerge herbicidal activity, phytotoxicity rating ECHCG: 20
[16]; 250 g ai/ha
  Pre-emerge herbicidal activity, phytotoxicity rating ECHCG: 90
[17]; 63 g ai/ha
  Pre-emerge herbicidal activity, phytotoxicity rating CASOB: 20
[17]; 250 g ai/ha
  Pre-emerge herbicidal activity, phytotoxicity rating CASOB: 10
[18]; 63 g ai/ha
  Pre-emerge herbicidal activity, phytotoxicity rating ABUTH: 100
[18]; 250 g ai/ha
  Pre-emerge herbicidal activity, phytotoxicity rating ABUTH: 100
[19]; 63 g ai/ha
  Pre-emerge herbicidal activity, phytotoxicity rating SORHA: 0
[19]; 250 g ai/ha
  Pre-emerge herbicidal activity, phytotoxicity rating SORHA: 30
[20]; 63 g ai/ha
  Pre-emerge herbicidal activity, phytotoxicity rating DIGSA: 90
[20]; 250 g ai/ha
  Pre-emerge herbicidal activity, phytotoxicity rating DIGSA: 100
[21]; 63 g ai/ha
  Pre-emerge herbicidal activity, phytotoxicity rating IPOHE: 10
[21]; 250 g ai/ha
  Pre-emerge herbicidal activity, phytotoxicity rating IPOHE: 10
[22]; 63 g ai/ha
  Pre-emerge herbicidal activity, phytotoxicity rating CHEAL: 95
[22]; 250 g ai/ha
  Pre-emerge herbicidal activity, phytotoxicity rating CHEAL: 100
[23]; 63 g ai/ha
  Pre-emerge herbicidal activity, phytotoxicity rating AMARE: 100
[23]; 250 g ai/ha
  Pre-emerge herbicidal activity, phytotoxicity rating AMARE: 100
